Test results: ChEMBL document CHEMBL5143525, “N-methylated diazabicyclo[3.2.2]nonane substituted triterpenoic acids are excellent, hyperbolic and selective inhibitors for butyrylcholinesterase” (Eur J Med Chem, 2022)
Activity calls are given as the source filed them. The calls are words filed in the database; no cut-off is given here.

Biological target: Cholinesterase (Equus caballus) (UniProt P81908)
Assay: Mixed type inhibition of equine serum BuChE by Dixon plot analysis

Sequence of Cholinesterase (Equus caballus) (P81908 whole entry): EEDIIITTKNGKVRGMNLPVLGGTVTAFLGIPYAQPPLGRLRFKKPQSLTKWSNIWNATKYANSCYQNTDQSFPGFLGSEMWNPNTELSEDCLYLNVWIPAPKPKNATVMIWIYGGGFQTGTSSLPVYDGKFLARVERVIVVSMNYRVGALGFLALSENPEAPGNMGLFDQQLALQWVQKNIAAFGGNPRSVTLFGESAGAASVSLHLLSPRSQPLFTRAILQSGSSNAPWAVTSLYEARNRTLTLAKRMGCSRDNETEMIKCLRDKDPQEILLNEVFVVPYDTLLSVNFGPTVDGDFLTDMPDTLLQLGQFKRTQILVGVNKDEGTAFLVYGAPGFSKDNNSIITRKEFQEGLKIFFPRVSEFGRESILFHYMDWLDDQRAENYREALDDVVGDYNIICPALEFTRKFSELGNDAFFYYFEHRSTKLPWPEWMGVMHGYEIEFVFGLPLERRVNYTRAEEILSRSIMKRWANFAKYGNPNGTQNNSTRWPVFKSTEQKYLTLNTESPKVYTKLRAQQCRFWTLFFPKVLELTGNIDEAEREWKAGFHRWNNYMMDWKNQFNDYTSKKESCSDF

| Compound | inhibition mechanism |
| --- | --- |
| CC(=O)O[C@H]1CC[C@]2(C)[C@H]3CC=C4[C@@H]5CC(C)(C)CC[C@]5(C(=O)N5CC6CC[N+](C)(CC6)C5)CC[C@@]4(C)[C@]3(C)CC[C@H]2C1(C)C | Active |
| CC(=O)O[C@H]1CC[C@]2(C)[C@H]3CC=C4[C@@H]5[C@@H](C)[C@H](C)CC[C@]5(C(=O)N5CC6CC[N+](C)(CC6)C5)CC[C@@]4(C)[C@]3(C)CC[C@H]2C1(C)C | Active |
| CC(=O)O[C@H]1CC[C@]2(C)[C@H]3C(=O)C[C@H]4[C@@H]5C[C@@](C)(C(=O)N6CC7CC[N+](C)(CC7)C6)CC[C@]5(C)CC[C@@]4(C)[C@]3(C)CC[C@H]2C1(C)C | Active |
| C=C(C)[C@@H]1CC[C@]2(C(=O)N3CC4CC[N+](C)(CC4)C3)CC[C@]3(C)[C@@H](CC[C@@H]4[C@@]5(C)CC[C@H](OC(C)=O)C(C)(C)[C@@H]5CC[C@]43C)[C@H]12 | Active |
| CC(=O)O[C@H]1CC[C@]2(C)[C@H]3CC[C@H]4[C@@H]5[C@H](C(C)=O)CC[C@]5(C(=O)N5CC6CC[N+](C)(CC6)C5)CC[C@@]4(C)[C@]3(C)CC[C@H]2C1(C)C | Active |
